Experiment: Relative bioavailability and food effect of 200 mg LCZ696 mini-tablets vs 200 mg FMI tablet; randomized, open-label, single dose, crossover study;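 further: crossover design with one dose per period, healthy volunteers, 40 enrolled and 39 completing the study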
Details: label = analyte; for extent of absorption (AUCs) with a high fat meal: LCZ696 200 mg mini-tablets sprinkled on pudding; for Cmax, geometric mean ratio, Mini tablets vs FMI tablet (Fasting) / AUCinf, geometric mean ratio, Mini tablets vs FMI tablet (Fasting) / AUClast, geometric mean ratio, Mini tablets vs FMI tablet (Fasting) / Cmax, geometric mean ratio, Pudding + High fat meal vs Pudding (Mini tablets) / AUCinf, geometric mean ratio, Pudding + High fat meal vs Pudding (Mini tablets) / AUClast, geometric mean ratio, Pudding + High fat meal vs Pudding (Mini tablets) / Cmax, geometric mean ratio, Pudding vs fasting (Mini tablets) / AUCinf, geometric mean ratio, Pudding vs fasting (Mini tablets) / AUClast, geometric mean ratio, Pudding vs fasting (Mini tablets): LCZ696 200 mg single oral dose, healthy subjects; for Cmax, geometric mean ratio, Mini tablets vs FMI tablet (Fasting) / AUCinf, geometric mean ratio, Mini tablets vs FMI tablet (Fasting) / AUClast, geometric mean ratio, Mini tablets vs FMI tablet (Fasting): test minitablets / reference FMI tablet; for Cmax, geometric mean ratio, Mini tablets vs FMI tablet (Fasting) / Cmax, geometric mean ratio, Pudding + High fat meal vs Pudding (Mini tablets) / Cmax, geometric mean ratio, Pudding vs fasting (Mini tablets): parameter head prints ng/ml; for AUCinf, geometric mean ratio, Mini tablets vs FMI tablet (Fasting) / AUClast, geometric mean ratio, Mini tablets vs FMI tablet (Fasting) / AUCinf, geometric mean ratio, Pudding + High fat meal vs Pudding (Mini tablets) / AUClast, geometric mean ratio, Pudding + High fat meal vs Pudding (Mini tablets) / AUCinf, geometric mean ratio, Pudding vs fasting (Mini tablets) / AUClast, geometric mean ratio, Pudding vs fasting (Mini tablets): parameter head prints ng·h/ml; for Cmax, geometric mean ratio, Pudding + High fat meal vs Pudding (Mini tablets) / AUCinf, geometric mean ratio, Pudding + High fat meal vs Pudding (Mini tablets) / AUClast, geometric mean ratio, Pudding + High fat meal vs Pudding (Mini tablets): test minitablets on pudding + high fat meal / reference minitablets with pudding; for Cmax, geometric mean ratio, Pudding vs fasting (Mini tablets) / AUCinf, geometric mean ratio, Pudding vs fasting (Mini tablets) / AUClast, geometric mean ratio, Pudding vs fasting (Mini tablets): test minitablets with pudding / reference minitablets; for decrease of Cmax with a high fat meal: single dose LCZ696 200 mg mini-tablets sprinkled on pudding

Row | Cmax, geometric mean ratio, Mini tablets vs FMI tablet (Fasting) | AUCinf, geometric mean ratio, Mini tablets vs FMI tablet (Fasting) | AUClast, geometric mean ratio, Mini tablets vs FMI tablet (Fasting) | Cmax, geometric mean ratio, Pudding + High fat meal vs Pudding (Mini tablets) | AUCinf, geometric mean ratio, Pudding + High fat meal vs Pudding (Mini tablets) | AUClast, geometric mean ratio, Pudding + High fat meal vs Pudding (Mini tablets) | Cmax, geometric mean ratio, Pudding vs fasting (Mini tablets) | AUCinf, geometric mean ratio, Pudding vs fasting (Mini tablets) | AUClast, geometric mean ratio, Pudding vs fasting (Mini tablets) | decrease of Cmax with a high fat meal | Structure (SMILES) | extent of absorption (AUCs) with a high fat meal
1 | 0.94 | 0.96 | 0.96 | 0.4 | 1.01 | 1.00 | 1.00 | 1.04 | 1.04 | 60% | CCOC(=O)[C@H](C)C[C@@H](Cc1ccc(-c2ccccc2)cc1)NC(=O)CCC(=O)O [Sacubitril, (2R,4S)-5-biphenyl-4-yl-4-(3-carboxy-propionylamino)-2-methyl-pentanoic acid ethyl ester] | comparable
2 | 1.09 | 1.11 | 1.11 | 0.43 | 0.6 | 0.59 | 1.02 | 1.02 | 1.04 | 57% | CCCCC(=O)N(Cc1ccc(-c2ccccc2-c2nnn[nH]2)cc1)[C@H](C(=O)O)C(C)C [Valsartan, S—N-valeryl-N-{[2′-(1H-tetrazole-5-yl)-biphenyl-4-yl]-methyl}-valine] | 

Row | Structure (SMILES) | Cmax, geometric mean ratio, Mini tablets vs FMI tablet (Fasting) | AUCinf, geometric mean ratio, Mini tablets vs FMI tablet (Fasting) | AUClast, geometric mean ratio, Mini tablets vs FMI tablet (Fasting) | Cmax, geometric mean ratio, Pudding + High fat meal vs Pudding (Mini tablets) | AUCinf, geometric mean ratio, Pudding + High fat meal vs Pudding (Mini tablets) | AUClast, geometric mean ratio, Pudding + High fat meal vs Pudding (Mini tablets) | Cmax, geometric mean ratio, Pudding vs fasting (Mini tablets) | AUCinf, geometric mean ratio, Pudding vs fasting (Mini tablets) | AUClast, geometric mean ratio, Pudding vs fasting (Mini tablets) | decrease of Cmax with a high fat meal | extent of absorption (AUCs) with a high fat meal
3 | C[C@H](C[C@@H](Cc1ccc(-c2ccccc2)cc1)NC(=O)CCC(=O)O)C(=O)O [LBQ657, (2R,4S)-5-biphenyl-4-yl-4-(3-carboxy-propionylamino)-2-methyl-pentanoic acid] | 0.95 | 0.98 | 0.98 | 0.81 | 1.02 | 1.02 | 0.99 | 1.01 | 1.01 | 19% | comparable

Reference: patent publication US10722471B2, “Galenic formulations of organic compounds” (Novartis AG, priority 2016, dated 2020)
